In PMC3522743, “Wax Ester Synthesis is Required for Mycobacterium tuberculosis to Enter In Vitro Dormancy” (PLoS ONE, 2012):

Assays:
FCR2 (Rv1543) = FCR2 (Rv1543) (Mycobacterium tuberculosis, UniProt P9WGS1)
FCR1 (Rv3391) = molecular target: T1, FCR1 (Rv3391) (Mycobacterium tuberculosis, UniProt O50417)
T1 construct: gene acrA1
T1 sequence (O50417 entry or part of it): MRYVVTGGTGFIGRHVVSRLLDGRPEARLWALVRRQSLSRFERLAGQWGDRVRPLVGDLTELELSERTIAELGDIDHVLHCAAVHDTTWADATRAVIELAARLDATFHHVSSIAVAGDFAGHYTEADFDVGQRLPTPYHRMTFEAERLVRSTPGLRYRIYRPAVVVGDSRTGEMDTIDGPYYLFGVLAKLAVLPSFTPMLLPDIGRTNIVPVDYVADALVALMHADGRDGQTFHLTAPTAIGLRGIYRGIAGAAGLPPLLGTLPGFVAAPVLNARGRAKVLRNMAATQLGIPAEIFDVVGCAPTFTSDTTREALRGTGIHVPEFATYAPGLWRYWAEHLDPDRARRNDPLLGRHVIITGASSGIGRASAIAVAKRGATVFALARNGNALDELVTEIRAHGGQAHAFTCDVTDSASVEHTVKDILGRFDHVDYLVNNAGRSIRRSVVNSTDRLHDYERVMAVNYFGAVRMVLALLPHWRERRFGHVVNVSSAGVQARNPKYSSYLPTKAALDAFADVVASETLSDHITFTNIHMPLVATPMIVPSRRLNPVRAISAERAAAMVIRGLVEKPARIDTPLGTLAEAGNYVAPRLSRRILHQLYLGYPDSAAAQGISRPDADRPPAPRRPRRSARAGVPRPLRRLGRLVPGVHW

Sequence of FCR2 (Rv1543) (P9WGS1 whole entry): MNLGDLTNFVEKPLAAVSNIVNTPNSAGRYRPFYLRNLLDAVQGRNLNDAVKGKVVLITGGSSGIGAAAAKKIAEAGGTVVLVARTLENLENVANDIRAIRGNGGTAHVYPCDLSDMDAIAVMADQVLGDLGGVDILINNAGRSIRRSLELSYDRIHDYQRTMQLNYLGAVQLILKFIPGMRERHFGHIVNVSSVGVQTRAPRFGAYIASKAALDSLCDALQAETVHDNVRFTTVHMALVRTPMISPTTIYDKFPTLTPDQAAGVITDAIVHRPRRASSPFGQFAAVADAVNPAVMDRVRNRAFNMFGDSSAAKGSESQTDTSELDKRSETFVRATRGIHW

SMILES | 14C product formation, TLC and scintillation counting, E. coli lysate (FCR2 (Rv1543)) | 14C product formation, TLC and scintillation counting, E. coli lysate (FCR1 (Rv3391))
NC(=O)C1=CN([C@@H]2O[C@H](COP(=O)(O)OP(=O)(O)OC[C@H]3O[C@@H](n4cnc5c(N)ncnc54)[C@H](OP(=O)(O)O)[C@@H]3O)[C@@H](O)[C@H]2O)C=CC1 [NADPH] | Both FCR1 and FCR2 exhibited strong preference for NADPH as a cofactor | Both FCR1 and FCR2 exhibited strong preference for NADPH as a cofactor
CCCCCCCC/C=C\CCCCCCCC(=O)SCCNC(=O)CCNC(=O)[C@H](O)C(C)(C)COP(=O)(O)OP(=O)(O)OC[C@H]1O[C@@H](n2cnc3c(N)ncnc32)[C@H](O)[C@@H]1OP(=O)(O)O [oleoyl-CoA] | Both of these proteins showed typical substrate saturation with oleoyl-CoA (Fig. 3C, G). | Both of these proteins showed typical substrate saturation with oleoyl-CoA (Fig. 3C, G).
